The values that follow come from US4728650A, “3,4-dihydrobenzopyran derivatives and medicinal uses thereof” (Kuraray Co., Ltd., priority 1985, dated 1988).

One may read the inhibition in vivo as the share of the control response that was lost under treatment.

A short description of assay [1]: Stress ulcer (water immersion stress) in mice. It is filed as in vivo, mice (ddK strain, male). As for the experimental part:
Male mice of ddK strain (body weights, 18-20 g) were placed in a stress cage in groups of 6 animals and immersed down to the level of the xiphoid process in a water bath at 22±1° C. to give a stress. Five hours later the mice were raised from the water bath and the stomach was removed under ether anesthesia. Into the stomach was infused 1.2 ml of a 10% aqueous solution of formaldehyde and, then, the stomach was immersed in a 10% aqueous solution of formaldehyde for 10 minutes for fixation of the tissue. After fixation, an incision was made along the greater curvature for observing ulcers which had appeared in the glandular portion of the stomach. The degree of ulceration was classified according to the following ulcer index scale and the % inhibition of ulcer was estimated.
2: Hemorrhage and erosion
3: Severe hemorrhage and erosion
Each test compound was orally administered, as suspended in a gum arabic solution in concentration of 5%, to mice 10 minutes before stress loading.

Assay [2] is described as follows: Hydrochloric acid-ethanol-induced ulcer in rats. It is filed as in vivo, Wistar rats (male). As for the experimental part: Male Wistar rats (body weights, 170-210 g) were used in groups of 6 to 8 animals. Indomethacin, 20 mg/kg body weight, was injected subcutaneously to rats which had been deprived of food for 24 hours. After 7 hours, the stomach was excised under ether anesthesia. A 10% aqueous solution of formaldehyde was infused into the stomach until the stomach was inflated and, then, the stomach was immersed in a 10% aqueous solution of formaldehyde for 10 minutes for fixation of the tissue. After fixation, an incision was made along the greater curvature and the length of ulcers occurring in the glandular portion of the stomach was measured. The total length of ulcers occurring in a rat was taken as an ulcer index. Each test compound was orally administered, as suspended in a gum arabic solution in concentration of 5%, to rats 10 minutes before subcutaneous injection of indomethacin. Male Wistar rats (body weights, 160-190 g) were used in groups of 6 to 8 animals. One milliliter of a 60% aqueous solution of ethanol containing 150 mM hydrochloric acid was administered orally to rats which had been deprived of food for 24 hours. After one hour, the stomach was excised under ether anesthesia. In a manner similar to that described in study for indomethacin-induced ulcer, the ulcer index was determined. Each test compound was orally administered, as suspended in a gum arabic solution in concentration of 5%, to rats 1 hour before administration of hydrochloric acid-ethanol.

Assay [3] can be described thus: Pyloric ligation-induced ulcer (Shay ulcer) in rats. Type of assay: in vivo, Wistar rats (male). Conditions: Table 2, 200 mg/kg i.d. How it is done: Male Wistar rats (body weights, 180-200 g) were used in groups of 7 animals. After 48-hour fasting, laparotomy was performed under ether anesthesia and the pylorus was ligated with a suture. After 13 hours, the stomach was isolated under ether anesthesia and gastric juice was collected. The gastric juice was centrifuged at 3,000 r.p.m. for 10 minutes and the volume and pH value of gastric juice were determined. The pH value was determined by using pH paper. After collection of gastric juice, a 10% aqueous solution of formaldehyde was infused into the stomach until the stomach was inflated. Then, the stomach was immersed in a 10% aqueous solution of formaldehyde for 10 minutes for fixation of the tissue. After fixation, an incision was made along the greater curvature for observing ulcers which had developed in the glandular portion of the stomach. The degree of ulcer was classified according to the following ulcer index scale.
2: 1-5 small ulcers (<3 mm in diameter)
3: Six or more small ulcers or one large ulcer (>3 mm in diameter)
4: Two or more large ulcers
Each test compound was administered, as suspended in a gum arabic solution in concentration of 5%, into the duodenum immediately after pyloric ligation.

A short description of assay [4]: Indomethacin-induced ulcer in rats. Type of assay: in vivo, Wistar rats (male). The conditions noted are these: Table 3, 200 mg/kg p.o. As for the experimental part: Male Wistar rats (body weights, 170-210 g) were used in groups of 6 to 8 animals. Indomethacin, 20 mg/kg body weight, was injected subcutaneously to rats which had been deprived of food for 24 hours. After 7 hours, the stomach was excised under ether anesthesia. A 10% aqueous solution of formaldehyde was infused into the stomach until the stomach was inflated and, then, the stomach was immersed in a 10% aqueous solution of formaldehyde for 10 minutes for fixation of the tissue. After fixation, an incision was made along the greater curvature and the length of ulcers occurring in the glandular portion of the stomach was measured. The total length of ulcers occurring in a rat was taken as an ulcer index. Each test compound was orally administered, as suspended in a gum arabic solution in concentration of 5%, to rats 10 minutes before subcutaneous injection of indomethacin. The doses of test compounds and the ulcer indices for treated and untreated rats are shown in Table 3 for purposes of comparison. The % inhibition of ulcer by each test compound as estimated from the ulcer index is also presented in the same table.

Assay [5] in a line: Expectorant action: tracheal secretion of fluorescein sodium in rats. It is filed as in vivo, Wistar rats (male). Conditions: 50 mg/kg oral. As for the experimental part:
Male Wistar rats (body weights, 280-320 g) were used in groups of 7 animals. Each test compound was orally administered in dose of 50 mg/kg body weight to rats. Immediately after administration, 0.3 ml/100 g (body weight of rat) of a 1% aqueous solution of fluorescein sodium was injected into the caudal vein. One hour after administration of the test compound, pentobarbital sodium 100 mg/kg (body weight of rat) was injected intraperitoneally so that deep anesthesia might cause the rat to die. Then, the trachea was exposed and an incision was made in the trachea. A sonde was inserted thereinto and ligation was made. To the sonde was connected a syringe containing 10 ml of a 5% solution of sodium hydrogen carbonate kept at 37° C. and 4 ml of the solution of sodium hydrogen carbonate was injected into the lung. After 5 minutes, the fluid in the lung was removed. After this procedure of injection and removal was repeated three times, the fluid removed from the lung was filtered and the filtrate was made up with water to make 20 ml. The intensity of fluroescence was determined at the excitation wave length of 491 nm and the fluorescence wave length of 510 nm using a spectrophotometer (HITACHI model 650-10, Hitachi, Ltd.). The amount of fluorescein sodium secreted into the trachea was estimated from the intensity of fluorescence. Each test compound was administered as suspended in a gum arabic solution in concentration of 5%.

Setting [6] is: Table 16, control 6.455 ± 0.766.

Counter-ions that a name gives are not always drawn.

Consider `CN1[C@@H]2CC[C@H]1C[C@@H](OC(=O)C(CO)c1ccccc1)C2` (stereo partly drawn) [Atropine sulfate], for which, in assay [1] (Table 1, 30 mg/kg p.o.), the “% Inhibition of ulcer” value is 80.99%. Besides, in assay [1] (Table 1, 30 mg/kg p.o., control 2.63 ± 0.18), the “Ulcer index (mean ± S.E.)” value is reported as 0.50 ± 0.29 mm.

For `CNC(=NC#N)NCCSCc1nc[nH]c1C` [Cimetidine, N"-cyano-N-methyl-N'-[2-[(5-methyl-1H-imidazol-4-yl)methylthio]ethyl]guanidine, reference compound], the “% Inhibition of ulcer” value in assay [1] (mouse, in vivo, po, 200 mg/kg) is on record as 49.43%; in assay [4] it was 86.97%. In addition, the “Ulcer index (mean ± S.E.)” value in assay [1] (mouse, in vivo, po, 200 mg/kg) was found to be 1.33 ± 0.21 mm; in assay [2] (Table 4, 200 mg/kg p.o., control 7.36 ± 1.23), 1.63 ± 0.49 mm; in assay [2] (Table 12, 200 mg/kg p.o., control 9.93 ± 0.91), 2.18 ± 1.04 mm; in assay [3] (scale 0-5, control 3.86 ± 0.40), 1.71 ± 0.18; in assay [4] (control 10.36 ± 2.07) it was 1.35 ± 0.48 mm. Also, the inhibition in vivo at 200 mg/kg in assay [2] (Rattus norvegicus, po, 1 h, Table 7, 200 mg/kg p.o.) is 77.9%; in assay [2] (Rattus norvegicus, po, 1 h, Table 12, 200 mg/kg p.o.) it was 78%. Besides, in assay [3] (control 1.77 ± 0.54), the “pH value of gastric juice” value is given as 2.29 ± 0.88. Further, the “Volume of gastric juice” value in assay [3] (control 5.09 ± 0.40) is on record as 5.13 ± 0.99 ml/100 g body weight.

As to `COc1c(C)c(C)c2c(c1C)CCC(C)(CCN1CCN(C(=O)c3ccc(Br)cc3)CC1)O2` (stereo not drawn) [Compound (22), 1-[2-(3,4-Dihydro-6-methoxy-2,5,7,8-tetramethyl-2H-benzopyran-2-yl)ethyl]-4-(4-bromobenzoyl)piperazine], the “Secretory amount (mean ± S.E.)” value in assay [5] (Table 15, control 5.20 ± 0.78) was 6.26 ± 0.32 μg/100 g (body weight of rat)/.

Take `COc1c(C)c(C)c2c(c1C)CCC(C)(CCN1CCN(C(=O)c3ccncc3)CC1)O2` (stereo not drawn) [Compound (23), 1-[2-(3,4-Dihydro-6-methoxy-2,5,7,8-tetramethyl-2H-benzopyran-2-yl)ethyl]-4-(4-pyridylcarbonyl)piperazine]: in assay [5] (Table 15, control 5.20 ± 0.78), the “Secretory amount (mean ± S.E.)” value is 8.16 ± 1.03 μg/100 g (body weight of rat)/.

Turning to `COc1c(C)c(C)c2c(c1C)CCC(C)(CCN1CCN(C(=O)CCC=C(C)CCC=C(C)CCC=C(C)C)CC1)O2` (stereo not drawn) [Compound (24), 1-[2-(3,4-Dihydro-6-methoxy-2,5,7,8-tetramethyl-2H-benzopyran-2-yl)ethyl]-4-(5,9,13-trimethyl-4,8,12-tetradecatrienoyl)piperazine], the “Secretory amount (mean ± S.E.)” value in assay [5] (Table 14, control 1.60 ± 0.18) is 2.74 ± 0.22 μg/100 g (body weight of rat)/.

For the compound `COc1ccc2c(c1)OC(C)(CCN1CCN(C(=O)c3cc(OC)c(OC)c(OC)c3)CC1)CC2` (stereo not drawn) [Compound (25), 1-[2-(3,4-Dihydro-7-methoxy-2-methyl-2H-benzopyran-2-yl)ethyl]-4-(3,4,5-trimethoxybenzoyl)piperazine], the “Secretory amount (mean ± S.E.)” value in assay [5] (Table 14, control 1.60 ± 0.18) was 3.08 ± 0.19 μg/100 g (body weight of rat)/.

For the compound `COc1ccc(C(=O)N2CCN(CCC3(C)CCc4cc(Cl)ccc4O3)CC2)cc1` (stereo not drawn) [Compound (26), 1-[2-(6-Chloro-3,4-dihydro-2-methyl-2H-benzopyran-2-yl)ethyl]-4-(4-methoxybenzoyl)piperazine], in assay [5] (Table 15, control 5.20 ± 0.78), the “Secretory amount (mean ± S.E.)” value is given as 9.61 ± 0.83 μg/100 g (body weight of rat)/.

As to `COc1ccc(C(=O)N2CCN(CCCC3(C)CCc4c(C)c(OC)c(C)c(C)c4O3)CC2)cc1` (stereo not drawn) [Compound (27), 1-[3-(3,4-Dihydro-6-methoxy-2,5,7,8-tetramethyl-2H-benzopyran-2-yl)propyl]-4-(4-methoxybenzoyl)piperazine], the “Secretory amount (mean ± S.E.)” value in assay [5] (Table 15, control 5.20 ± 0.78) is reported as 6.45 ± 0.72 μg/100 g (body weight of rat)/.

In the case of `COc1ccc(CN2CCN(C(=O)CC3(C)CCc4c(C)c(OC)c(C)c(C)c4O3)CC2)c(OC)c1OC` (stereo not drawn) [Compound (28), 1-[(3,4-Dihydro-6-methoxy-2,5,7,8-tetramethyl-2H-benzopyran-2-yl)acetyl]-4-(2,3,4-trimethoxybenzyl)piperazine], the “Secretory amount (mean ± S.E.)” value in assay [5] (Table 14, control 1.60 ± 0.18) is given as 3.28 ± 0.31 μg/100 g (body weight of rat)/.

For the compound `COc1ccc(CN2CCN(C(=O)CC3(C)CCc4cc(Cl)ccc4O3)CC2)c(OC)c1OC` (stereo not drawn) [Compound (29), 1-[(6-Chloro-3,4-dihydro-2-methyl-2H-benzopyran-2-yl)acetyl]-4-(2,3,4-trimethoxybenzyl)piperazine], the “Secretory amount (mean ± S.E.)” value in assay [5] (Table 13, control 5.30 ± 0.40) is recorded as 5.57 ± 0.36 μg/100 g (body weight of rat)/.

With `COc1ccc(CN2CCN(C(=O)C3(C)CCc4c(C)c(OC)c(C)c(C)c4O3)CC2)c(OC)c1OC` (stereo not drawn) [Compound (30), 1-[(3,4-Dihydro-6-methoxy-2,5,7,8-tetramethyl-2H-benzopyran-2-yl)carbonyl]-4-(2,3,4-trimethoxybenzyl)piperazine], in assay [5] (Table 13, control 5.30 ± 0.40), the “Secretory amount (mean ± S.E.)” value is 5.45 ± 0.54 μg/100 g (body weight of rat)/.

As for `COc1ccc(CN2CCN(CCC3(C)CCc4c(C)c(OC)c(C)c(C)c4O3)CC2)c(OC)c1OC` (stereo not drawn) [Compound (31), 1-[2-(3,4-Dihydro-6-methoxy-2,5,7,8-tetramethyl-2H-benzopyran-2-yl)ethyl]-4-(2,3,4-trimethoxybenzyl)piperazine], the “Secretory amount (mean ± S.E.)” value in assay [5] (setting [6]) is reported as 7.529 ± 0.751 μg/100 g (body weight of rat)/. Also, the inhibition in vivo at 50 mg/kg in assay [2] (Rattus norvegicus, po, 1 h, Table 11, 50 mg/kg p.o.) came to 100%. In addition, the “Ulcer index (mean ± S.E.)” value in assay [2] (Table 11, 50 mg/kg p.o., control 6.12 ± 1.76) came out at 0.00 ± 0.00 mm.

With `COc1c(C)c(C)c2c(c1C)CCC(C)(CCN1CCN(C(=O)c3ccccc3)CC1)O2` (stereo not drawn) [Compound (32), 1-Benzoyl-4-[2-(3,4-dihydro-6-methoxy-2,5,7,8-tetramethyl-2H-benzopyran-2-yl)ethyl]piperazine], in assay [5] (Table 13, control 5.30 ± 0.40), the “Secretory amount (mean ± S.E.)” value was 5.43 ± 0.72 μg/100 g (body weight of rat)/.

For `COc1c(C)c(C)c2c(c1C)CCC(C)(CCN1CCN(CCO)CC1)O2` (stereo not drawn) [Compound (35), 1-[2-(3,4-Dihydro-6-methoxy-2,5,7,8-tetramethyl-2H-benzopyran-2-yl)ethyl]-4-(2-hydroxyethyl)piperazine], the “Secretory amount (mean ± S.E.)” value in assay [5] (setting [6]) is on record as 10.297 ± 1.841 μg/100 g (body weight of rat)/.
